The source of these data is patent publication US20240010981A1, “COMPOSITIONS AND METHODS FOR INCREASING STEM CELL FUNCTION” (SOCIETE DES PRODUITS NESTLE S.A., priority 2020, published 2024).

Test [1] deals with murine HSCs (LKS CD150+CD48−). Description: Mitochondrial membrane potential (TMRM staining, flow cytometry) of cultured murine HSCs. The test is classed as cell-based, mouse. The note with it: compared to the Basal condition; day 3 of culture; NR 500 uM, Vit B12 (MC) 100 uM. Here is the method: Flow cytometry analysis was performed on freshly isolated bone marrow (BM) from C57BI6 mice. BM was extracted from crushed femora and tibia. Cell suspension was filtered through a 70 μm cell strainer and erythroid cells were eliminated by incubation with red blood cell lysis buffer (eBioscences). Isolation and stains were performed in ice-cold PBS 1 mM EDTA. Lineage positive cells were then removed with a magnetic lineage depletion kit (BD biosciences). Cell suspensions were then stained with specific antibodies for the stem cell compartment and sorted by FACS (BD FACS Aria III) into 1.5 ml Eppendorf tubes.
The following antibodies were used in this study: rat mAbs against cKit (2B8), Sca1 (D7), CD150 (TC-15-12F12.2), CD48 (HM48-1). The antibodies were purchased from Biolegend, eBiosciences and BD. A mixture of biotinylated mAbs against CD3, CD11b, CD45R/B220, Ly-6G, Ly-6C and TER-119 was used as lineage marker (“lineage cocktail”) and was purchased from BD. DAPI or propidium iodine (PI) staining was used for live/dead cell discrimination.
Murine HSCs were sorted into 1.5 ml Eppendorf tubes and were cultured in Stemline II (SIGMA) supplemented with 100 ng/ml SCF (R&D) and 2 ng/ml Flt3 (R&D). This was defined as the basal condition. Different concentrations as indicated of UroA, NR and Vit B12 (MC) were added in specific wells. NR was supplemented every 24 hours.
Mouse HSCs already in culture were incubated at 37° C. for 1 hour with 200 nM tetramethylrhodamine methyl ester (TMRM; Invitrogen) and 100 nM Mitotracker green. Cells were then washed with FACS buffer and analysed by flow cytometry on a BD LSR II.
Freshly FACS sorted mHSCs (LKS CD150+CD48−) were cultured in basal media (Stemline+SCF+FLT3L) supplemented with UroA, NR and MC in specific wells (as indicated). Cells were harvested at day 3 and stained with tetramethylrhodamine methyl ester (TMRM; to measure mitochondria membrane potential) and Mitotracker (to measure mitochondrial mass) and analysed by flow cytometry.

The next test deals with human HSCs. The note with it: culture media supplemented with nicotinamide riboside, primary and secondary recipient humanised mice; cited from earlier work.

Entries after “also recorded” stand apart in the source; their conditions may differ.

For the compound `C/C1=C2/[N-][C@H]([C@H](CC(N)=O)[C@@]2(C)CCC(=O)NC[C@@H](C)OP(=O)([O-])O[C@H]2[C@@H](O)[C@@H](n3cnc4cc(C)c(C)cc43)O[C@@H]2CO)[C@]2(C)N=C(/C(C)=C3N=C(/C=C4N=C1[C@@H](CCC(N)=O)C\4(C)C)[C@@H](CCC(N)=O)[C@]\3(C)CC(N)=O)[C@@H](CCC(N)=O)[C@]2(C)CC(N)=O.[CH3-].[Co]` [MC, methylcobalamine], in test [1], the “MFI TMRM (Mean Fluorescence Intensity)” value is listed as “significantly decreased; also recorded: decreases” and the “proportion of cells in the TMRM low gate” value is reported as “significantly increased; also recorded: increases”.
Regarding `NC(=O)c1ccc[n+]([C@@H]2O[C@H](CO)[C@@H](O)[C@H]2O)c1` [NR, Nicotinamide riboside], in test [1], the “MFI TMRM (Mean Fluorescence Intensity)” value is on record as “significantly decreased; also recorded: decreases” and the “proportion of cells in the TMRM low gate” value was “significantly increased; also recorded: increases”. For the same compound, the levels of engraftment result in the test on human HSCs is listed as “significantly higher”.
